Literature values in patent US20180008711A1, “TRIPLE ANTIBIOTIC CATIONIC OINTMENT” (priority 2015, published 2018).

Key:
[1] = tested on: Staphylococcus aureus (also the methicillin-resistant type, MRSA)
[2] = tested on: Aspergillus brasiliensis (mold)
[3] = tested on: Klebsiella pneumoniae (carbapenem-resistant enterobacteriaceae)
[4] = tested on: vancomycin-resistant enterococci
bacteria = settings: very low concentrations

Substance | effective against Staphylococcus aureus [1] | effective against Pseudomonas aeruginosa (Pseudomonas aeruginosa) | effective against Aspergillus brasiliensis [2] | effective against Klebsiella pneumoniae [3] | effective against Candida albicans (Candida albicans (yeast)) | effective against vancomycin-resistant enterococci [4] | effective against Escherichia coli (Escherichia coli) | fungicidal (fungi) | bactericidal concentration (bacteria)
polyhexamethylenebiguanide [PHMB] | effective | effective | effective | effective | effective | effective | effective | – | –
Polyaminopropylbiguanide [PAPB] | – | – | – | – | – | – | – | fungicidal | 10 mg/1
